The values below come from patent US12048742B2, “Hepatitis C virus peptide compositions and methods of use thereof” (The Governors of the University of Alberta, priority 2018, dated 2024).

Values joined by “and” are separate entries in the source; they are usually repeats but may differ in a detail not shown here. Identical values can stand only once. No end group written: not given here.

Data set [1] is described as follows: Solubility of T-cell epitope polypeptides in E1E2 buffer (Protocol 1). Type of data set: physicochemical. As to conditions: for solubility in E1E2 buffer (in words): Protocol 1, 1 mg/ml in E1E2 buffer, Nanodrop, FIG. 6, estimates based on A280 nm reading; for solubility: E1E2 buffer (10 mM sodium citrate, 250 mM NaCl, 1 mM EDTA, 0.1% TWEEN 80, pH 6.0), without adding dimethylsulfoxide, read-out: soluble in E1E2 buffer at a concentration of. The protocol:
For example, the peptides TP35-NS3 and TP50C are soluble in E1E2 buffer at a concentration of at least 1 mg/ml. The peptides TP35-NS3 and TP50C are soluble in E1E2 buffer at a concentration of at least 1 mg/ml, without the need for adding dimethylsulfoxide (DMS). In some cases, a T-cell epitope polypeptide suitable for inclusion in a composition of the present disclosure is soluble in E1E2 buffer at a concentration of at least 25 μg/ml, at least 30 μg/ml, at least 35 µg/ml, at least 50 μg/ml, at least 75 μg/ml, at least 100 μg/ml, at least 250 μg/ml, at least 500 µg/ml, at least 750 μg/ml, or at least 1 mg/ml.
Protocol 1 The solubility of the T-cell epitope polypeptides in E1E2 buffer was determined. E1E2 buffer: 10 mM sodium citrate, 250 mM NaCl, 1 mM ethylenediaminetetraacetic acid (EDTA), 0.1% non-ionic detergent TWEEN® 80, pH 6.0. Lyophilized T-cell epitope polypeptides were individually added to E1E2 buffer at a final concentration of 1 mg T-cell epitope polypeptide per ml E1E2 buffer, to generate T-cell epitope polypeptide/E1E2 solutions. The T-cell epitope polypeptide/E1E2 solutions were vortexed for 3 seconds. The T-cell epitope polypeptide/E1E2 solutions were then centrifuged at 10,000×g for 30 seconds. […] After centrifugation, the concentration of peptides was measured using Nanodrop (Thermo Fisher).
Solubility values shown in FIG. 6 are estimates based on A280 nm reading.

The nature of the next data set: FIG. 6. The source says: Table printed on a drawing sheet, FIG. 6
The patent's description of the figure: FIG. 6 provides the solubility of various T-cell epitope polypeptides in an aqueous buffer. TP35-NS3: SEQ ID NO:133; TP35-NS3(Lys)3: SEQ ID NO:302; TP42: SEQ ID NO:228; TP45 (C-terminal CNV replaced with KKK): SEQ ID NO:248; TP48: SEQ ID NO:254; TP48(Lys)3: SEQ ID NO:257; and TP50-C: SEQ ID NO:148.
First reader's note: Blanks inside the sequences only mark line breaks within the printed cell.

Data set [2] in a line: Solubility of reconstituted lyophilized peptides (Protocol 3). The data set is classed as physicochemical. As to conditions: Protocol 3, reconstituted in E1E2 buffer, E1E2 buffer without Tween, or water; shaking 2 h 30 min at room temperature; FIG. 13. The procedure: Protocol 3 TP42, TP45(Lys)3, and TP48 were lyophilized. The lyophilized peptides were reconstituted in: i) E1E2 buffer; or ii) E1E2 buffer without Tween; or iii) water. The reconstituted peptide solutions were vigorously vortexed for 20 seconds. After vortexing, the peptide solutions were incubated at room temperature with continuous shaking at 300 rpm for 2 hours 30 minutes. Afterwards, peptide solutions were centrifuged at 5000×g for 1 minute. After centrifugation, the concentration of the peptides in the supernatant was measured.

The nature of data set [3]: TP42-2: […] MW= 4543 g/mol; EC= 3105 (secreted protein). The protocol: Table printed on a drawing sheet, FIG. 27
Title: TP42-2: […] MW= 4543 g/mol; EC= 3105 (secreted protein)
The patent's description of the figure: FIG. 27 depicts solubility data for a TP33 T-cell epitope polypeptide (SEQ ID NO:279) and a TP42-2 T-cell epitope polypeptide (SEQ ID NO:291).
First reader's note: The sequence, MW and EC of TP42-2 are printed above the table; each row is one solution in which solubility was tested.

In the case of `CC[C@H](C)[C@H](NC(=O)[C@@H](NC(=O)[C@H](CO)NC(=O)[C@H](CC(=O)O)NC(=O)[C@H](Cc1ccccc1)NC(=O)[C@H](CC(=O)O)NC(=O)CNC(=O)[C@@H](NC(=O)[C@H](Cc1ccccc1)NC(=O)CNC(=O)[C@@H](NC(=O)[C@H](CCSC)NC(=O)[C@H](CC(C)C)NC(=O)[C@H](C)NC(=O)[C@H](CC(=O)O)NC(=O)[C@@H](NC(=O)[C@H](C)NC(=O)[C@@H](NC(=O)[C@@H](NC(=O)[C@@H](NC(=O)[C@@H](NC(=O)[C@H](CC(=O)O)NC(=O)CNC(=O)[C@H](CO)NC(=O)[C@@H](NC(=O)[C@@H]1CCCN1C(=O)[C@@H](NC(=O)[C@@H](NC(=O)[C@H](CO)NC(=O)[C@@H](NC(=O)[C@H](CC(=O)O)NC(=O)[C@H](CC(C)C)NC(=O)CNC(=O)[C@H](CCCNC(=N)N)NC(=O)[C@H](Cc1ccc(O)cc1)NC(=O)[C@H](Cc1ccc(O)cc1)NC(=O)[C@H](C)NC(=O)[C@@H](NC(=O)[C@H](C)NC(=O)[C@H](CC(N)=O)NC(=O)[C@@H](N)CC(C)C)C(C)C)C(C)C)C(C)C)[C@@H](C)CC)[C@@H](C)O)C(C)C)C(C)C)C(C)C)C(C)C)[C@@H](C)O)[C@@H](C)O)[C@@H](C)O)C(C)C)C(=O)N[C@@H](CC(=O)O)C(=O)N[C@@H](CCCCN)C(=O)N[C@@H](CCCCN)C(=O)N[C@@H](CCCCN)C(=O)O`, in data set [1], the “solubility in E1E2 buffer (in words)” value was “much lower solubility”.

As for “GTEGEIPFYGKAIPLEQIKGGRHLIFCHSKKKCDELAAKLTG [TP42] [listing 1 of 2 here]”, in “FIG. 6”, the “Measured Concentration” value is 0.079 mg/mL and the “Solubility (%)” value is 12%.

Turning to “GTEGEIPFYGKAIPLEQIKGGRHLIFCHSKKKCDELAAKLTG [TP42] [listing 2 of 2 here]”, the “solubility (in words)” value in data set [2] was “good solubility”. The “visible precipitation in E1E2 buffer” value in data set [1] (Protocol 1, 1 mg peptide per ml E1E2 buffer, after vortexing and centrifugation at 10,000×g) is listed as “precipitation was visible”. Besides, the “solubility in E1E2 buffer (in words)” value in data set [1] is given as “much lower solubility”.

Consider “GVYLLPRRGPRLGVRATRKTSERSQPRGRRQPIPKARRSEGRSWAQPGYP [TP50-C]”, for which, in data set [1], the solubility is not below 1000 µg/mL and the “solubility in E1E2 buffer (in words)” value is listed as “good solubility”.

“ILRRHVGPGEGAVQWMNRLIAFASRGNHVSPTHYVPESDASARVTQIL [TP48]”: in data set [2], the “solubility (in words)” value is “good solubility”.

Regarding “ILRRHVGPGEGAVQWMNRLIAFASRGNHVSPTHYVPESDASARVTQILKKK [TP48-(Lys)3]”, the “solubility in E1E2 buffer (in words)” value in data set [1] is listed as “good solubility”.

Turning to “KGGRHLIFCHSKKKCDELAAKLTGLGLNAVAYYRGLDVSVIP [TP42-2]”, in data set [3], the “Solubility | Measured” value is 415 µg/mL and 215 µg/mL and 233 µg/mL; the “Solubility | Percent (%)” value is 83% and 43% and 47%.

In the case of “KSTKVPAAYAAQGYKVLVLNPSVAATLGFGAYMSK [TP35-NS3]”, in data set [1], the solubility is not below 1000 µg/mL and the “solubility in E1E2 buffer (in words)” value is recorded as “good solubility”.

For “KSTKVPAAYAAQGYKVLVLNPSVAATLGFGAYMSKKKK [TP35-NS3-(Lys)3]”, the “solubility in E1E2 buffer (in words)” value in data set [1] was “good solubility”.
